These results are taken from article PMC11474028, “Lipopeptide antibiotics disrupt interactions of undecaprenyl phosphate with UptA” (Proceedings of the National Academy of Sciences of the …, 2024).

The conditions of assay [1]: ref 46 (ref 23, 46, 60, 61); cited from earlier work. The source says: To this end, we prepared UptA:C55-P mixtures and then equilibrated aliquots with bacitracin and vancomycin. […] In line with the specificity of bacitracin for C55-PP rather than C55-P, this antibiotic modestly ...
Assay [2] addresses UptA (Bacillus subtilis, UniProt O31823). The assay is described as follows: Native MS of antibiotic binding to UptA. As to conditions: 2.5 µM UptA, 10 µM C55-P, antibiotic up to 100 µM (polymyxins 100 µM), 0.05% LDAO, 200 mM ammonium acetate, 75 V. The procedure:
We next investigate how UptA and its complex with C55-P interact with a range of cell-wall targeting antibiotics including the lipopeptides daptomycin and amphomycin. […] We investigated whether daptomycin affects C55-P binding to UptA by recording spectra for solutions containing 2.5 µM UptA, 10 µM C55-P, and different concentrations of daptomycin.
(§1) Amphomycin and derivatives are known to kill bacteria by forming complexes with free C55-P ([46]), however, whether or not this involves a direct interaction with a protein cellular target is not known. We therefore investigated how amphomycin affects the UptA:C55-P complex. We recorded spectra for solutions containing 2.5 µM UptA, 10 µM C55-P and then equilibrated aliquots with increasing concentrations of amphomycin.
The amphiphilic nature of daptomycin and amphomycin raises the possibility that these lipopeptide antibiotics may promiscuously bind to UptA in a nonspecific manner. We probe this possibility by recording spectra for UptA:C55-P solutions in the presence of 100 µM polymyxin B and 100 µM polymyxin E. These polymyxins are membrane-disrupting lipopeptides that target the outer membrane lipopolysaccharides in Gram-negative bacteria ([47]) but without a known affinity for C55-P or UptA.
To this end, we prepared UptA:C55-P mixtures and then equilibrated aliquots with bacitracin and vancomycin.
(§2) Detailed experimental procedures are provided in SI Appendix. Briefly, UptA (wild type and mutants) was expressed in E. coli C43(DE3) cells (Lucigen) with GFP fusion on the C-terminus and solubilized from the membrane fraction by n-dodecyl-β-D-maltopyranoside (DDM). After purification by affinity chromatography, the GFP was cleaved by TEV protease and removed, and UptA was further purified by size-exclusion chromatography in a buffer containing 20 mM Tris-HCl (pH 8.0), 200 mM NaCl, 0.02% DDM. Before measurements, proteins were buffer-exchanged into 0.05% LDAO, 200 mM ammonium acetate at the desired pH using a centrifugal buffer exchange device (Micro Bio-Spin 6, Bio-Rad). Stock solutions of lipids were prepared from chloroform/methanol solution by evaporating aliquots of known volume in a SpeedVac. After drying, the lipid films were weighed and resuspended to a final concentration of 0.5 mM in 200 mM ammonium acetate and 0.05% LDAO by vertexing. Stock solutions of 0.5 mM amphomycin, aspartocin D, daptomycin, polymyxin B, polymyxin E, and bacitracin were made in the same buffer. All experiments were repeated three times from newly prepared stock solutions. Native mass spectrometry was performed on a Q-Exactive hybrid quadrupole-Orbitrap mass spectrometer (Thermo Fisher Scientific, Bremen, Germany), and lipid identification was performed on an Orbitrap Eclipse Tribrid mass spectrometer (Thermo). […]

Assay [3] concerns UptA:C55-P complex. Briefly: Native MS of UptA:C55-P complex in the presence of antibiotics. The note with it: 2.5 µM UptA, 10 µM C55-P; for effect of antibiotic on UptA:C55-P complex (in words): 0 to 100 µM antibiotic, 75 V, mean of three independent replicates. The class given is binding, Bacillus subtilis. The procedure: as §1
(A) Mass spectra (6+ charge state) for solutions containing 2.5 µM UptA and 10 µM C55-P incubated with 0 to 100 µM amphomycin. (B) Relative intensity of C55-P bound to UptA in the presence of amphomycin and daptomycin. The bar represents the mean of three independent replicates shown as data points and error bars are SD. […] (C) Fraction of C55-P bound to UptA in the presence of cell wall targeting antibiotics. Each sample contains 2.5 µM UptA, 10 µM C55-P and 100 µM of indicated antibiotic, and spectra were acquired using the same instrument settings and collisional activation of 75 V. The bar represents the mean of three independent replicates shown as data points, and the error bar represents SD. […]
as §2

The test system of assay [4] is B. subtilis strains bearing R112 and R118 mutations on UptA. As to conditions: cited from earlier work. The source says: Conserved arginine residues in the putative membrane reentrant loops of E. coli DedA proteins YqjA (R130) and YghB (R136) are important for the cellular role of these proteins ([36]). […] How these residues impact substrate interactions, however, is not known. […] Despite the combined cellular pool of C55-PP and C55-P being limited to ~1.5 × 10^5 molecules per cell ([56]), they mediate the transport of glycan-bearing components of the cell wall peptidoglycan, teichoic acid, and capsular polysaccharid ...

For assay [5] the following is noted: daptomycin ref 45; vancomycin ref 49, 50; cited from earlier work.

“Also recorded” adds a separate entry of the source.

Sequence of UptA (O31823 whole entry): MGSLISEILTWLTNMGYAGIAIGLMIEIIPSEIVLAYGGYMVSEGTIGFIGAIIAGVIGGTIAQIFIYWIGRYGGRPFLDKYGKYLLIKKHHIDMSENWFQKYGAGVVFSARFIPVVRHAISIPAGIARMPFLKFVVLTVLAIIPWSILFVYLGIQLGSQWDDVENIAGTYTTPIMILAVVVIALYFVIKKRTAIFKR

As to amphomycin, the “complex formation with free C55-P (in words)” value in assay [1] is recorded as “known propensity to form complexes with free C55-P molecules”. For the same substance, in assay [2], the “binding of antibiotic to UptA (in words)” value was “peaks consistent with amphomycin binding to UptA; also recorded: bind to UptA with higher affinity than other cell-wall targeting antimicrobial peptides such as bacitracin and vancomycin”. For the same substance, the “effect of antibiotic on UptA:C55-P complex (in words)” value in assay [3] was “peak intensities of the UptA:C55-P complex reduce with respect to an increase in the concentration of amphomycin; also recorded: induce dissociation of UptA:C55-P complexes; also recorded: bind directly to UptA and induce dissociation of the UptA:C55-P complex; also recorded: can directly inhibit UptA function by out-competing the substrate for the protein binding”; in assay [3] (listed as Amphomycin), “destabilizes the UptA:C55-P complex and sequesters C55-P”. Also, the “UptA:C55-P complex remaining at 10-fold molar excess of antibiotic (in words)” value in assay [3] (10-fold molar excess of amphomycin) is on record as “little-to-no UptA:C55-P complexes remained”. The “susceptibility of B. subtilis cells with UptA R112 and R118 mutations (in words)” value in assay [4] is reported as “more susceptible to inhibition by amphomycin”.

For daptomycin, the “complex formation with or sequestration of lipid II (in words)” value in assay [5] is “complexing with lipid II”. Further, the “binding of antibiotic to UptA (in words)” value in assay [2] is listed as “daptomycin interacts with UptA”. The “effect of antibiotic on UptA:C55-P complex (in words)” value in assay [3] is reported as “does not directly compete against C55-P binding to the protein; also recorded: modest impact”.
